Test results as given in US6492328B2, “Novispirins: antimicrobial peptides” (priority 2000, dated 2002).
Like-named read-outs stand apart in the source and are kept apart here. Where no end group is shown, it is not given here.

Columns and labels:
S. maltophilia 18CP = test: Novispirins vs S. maltophilia (Table 5); type: cell-based, Stenotrophomonas maltophilia; design: unit not given here; conditions: strain 18CP
Protocol: (§1) Microorganisms used in this study included 13 different Pseudomonas aeruginosa strains. The AML-654 and LZ-1 strains are recent clinical isolates from the UCLA Clinical Microbiology laboratory. Nine strains (5 mucoid, 4 nonmucoid) were recent CF isolates provided by Dr. Lisa Saiman. All of the P. aeruginosa strains except PAO-1 strain were resistant to multiple conventional antibiotics, and all 9 CF isolates were resistant to 250 μg/ml of tobramycin. We have also tested 5 strains each of Stenotrophomonas maltophilia and Burkholderia cepacia from CF patients (also provided by Dr. Lisa Saiman), two strains of Escherichia coli (ML-35p and DH-5a), and single strains of Staphylococcus aureus[MRSA (methicillin-resistant S. aureus)] and C. albicans.

S. maltophilia 36CN = test: Novispirins vs S. maltophilia (Table 5); type: cell-based, Stenotrophomonas maltophilia; design: unit not given here; conditions: strain 36CN
Protocol: as §1

S. maltophilia 42CK = test: Novispirins vs S. maltophilia (Table 5); type: cell-based, Stenotrophomonas maltophilia; design: unit not given here; conditions: strain 42CK
Protocol: as §1

S. maltophilia 47CG = test: Novispirins vs S. maltophilia (Table 5); type: cell-based, Stenotrophomonas maltophilia; design: unit not given here; conditions: strain 47CG
Protocol: as §1

S. maltophilia 51Cl = test: Novispirins vs S. maltophilia (Table 5); type: cell-based, Stenotrophomonas maltophilia; design: unit not given here; conditions: strain 51Cl
Protocol: as §1

E. coli = test: Two stage radial diffusion assay with 10 mM HEPES, G10 variants (Table 8); type: cell-based; conditions: mean ± SEM, n = 3, in µg/mL
From the text: (§2) Amidation (—NH2) of the carboxy terminus in some of the novispirin G10 variants was designed to increase overall positive charge. The sequences of these peptides and their net charge is shown below in Table 7. The fractional (and pH dependent) charge on histidine12 was ignored in this calculation.
(§3) In Table 8, MIC signifies minimal inhibitory concentration, as determined by two stage radial diffusion assays. […] Shaded boxes show results that represent a significant improvement of activity (p<0.01 by t-test), relative to novispirin G10. […] None of the above G10 novispirin derivatives caused any hemolysis of human red blood cells, even when tested at 80 μg/ml. It is likely that other cationic amino acids (e.g., lysine, ornithine, etc) could also be used in position 12 to achieve better activity in the presence of calcium and magnesium ions.

K. pneumoniae = test: as above; type: cell-based; conditions: mean ± SEM, n = 3, in µg/mL
From the text: as §2, §3

P. aeruginosa = test: as above; type: cell-based; conditions: mean ± SEM, n = 3, in µg/mL
From the text: as §2, §3

S. aureus = test: as above; type: cell-based; conditions: +1 mM Ca; mean ± SEM, n = 3; in µg/mL
From the text: as §2, §3

E. coli ML 35P = type: cell-based, Escherichia coli; conditions: mean ± SEM, n = 3
Protocol: Antimicrobial activity. Several different methods were used to examine the antimicrobial properties of novispirins, including: a) two-stage radial diffusion assays; b) colony counting assays; and c) standard microbroth dilution assays.
Antimicrobial activity was tested in media with low, normal or high salinity. In radial diffusion assays, this was accomplished by using a low salt “basic medium” containing 0.3 mg of trypticase soy broth powder/ml of 10 mM sodium phosphate buffer, pH 7.4. Media with “normal” or “high” salinity were prepared by supplementing the basic medium with 100 mM NaCl to obtain media with normal salinity, or with 175-200 mM NaCl to obtain high salt media. Retention of activity against P. aeruginosa in high salt media is important because airway fluids from cystic fibrosis patients are reported to show hypersalinity, and other sites—including skin surfaces surfaces and the urinary bladder—may have locally high salt concentrations.
The relative activities of ovispirin and the novispirins against two organisms, E. coli and a multi-resistant strain of P. aeruginosa, are shown in FIG. 1. The MICs were obtained by radial diffusion assays performed under low, normal, and high salt conditions (which are denoted along the X-axis as 0, 100 and 200 mM NaCl, respectively).
Table 1 compares the activity of novispirins against these Gram-negative bacteria with its activity against Listeria monocytogenes, Staphylococcus aureus and C. albicans. […] Note that novispirins show activity against these Gram-positive bacteria when tested in physiological (100 mM NaCl) salt concentrations, and also that Novispirin G10 is quite active against C. albicans. Although neither ovispirin nor novispirins retained activity against C. albicans or the Gram positives under very high salt conditions (200 mM NaCl), they remained active against the Gram-negatives under these conditions. Consequently, even if the airways' NaCl concentrations are exceptionally high in CF patients, this factor will not impair the ability of ovispirin or novispirins to kill P. aeruginosa.

[1] = Very high salinity (+200 mM NaCl)

Row | Compound | activity vs S. maltophilia (S. maltophilia 18CP; +100 mM NaCl) | activity vs S. maltophilia (S. maltophilia 18CP; +175 mM NaCl) | activity vs S. maltophilia (S. maltophilia 18CP; LOW SALT CONDITIONS) | activity vs S. maltophilia (S. maltophilia 36CN; +100 mM NaCl) | activity vs S. maltophilia (S. maltophilia 36CN; +175 mM NaCl) | activity vs S. maltophilia (S. maltophilia 36CN; LOW SALT CONDITIONS) | activity vs S. maltophilia (S. maltophilia 42CK; +100 mM NaCl) | activity vs S. maltophilia (S. maltophilia 42CK; +175 mM NaCl) | activity vs S. maltophilia (S. maltophilia 42CK; LOW SALT CONDITIONS) | activity vs S. maltophilia (S. maltophilia 47CG; +100 mM NaCl) | activity vs S. maltophilia (S. maltophilia 47CG; +175 mM NaCl) | activity vs S. maltophilia (S. maltophilia 47CG; LOW SALT CONDITIONS) | activity vs S. maltophilia (S. maltophilia 51Cl; +100 mM NaCl) | activity vs S. maltophilia (S. maltophilia 51Cl; +175 mM NaCl) | activity vs S. maltophilia (S. maltophilia 51Cl; LOW SALT CONDITIONS) | MIC (E. coli ML 35P; Low Salt (+0 mM NaCl)) | MIC (E. coli ML 35P; Normal salinity (+100 mM NaCl)) | MIC (E. coli ML 35P; [1]) | other results
1 | CC(C)C[C@H](NC(=O)[C@H](CCCNC(=N)N)NC(=O)CNC(=O)CNC(=O)[C@@H](N)CCCNC(=N)N)C(=O)N[C@H]1CSSC[C@@H](C(=O)N[C@H](C(=O)NCC(=O)N[C@@H](CCCNC(=N)N)C(N)=O)C(C)C)NC(=O)[C@H](C(C)C)NC(=O)[C@@H]2CSSC[C@H](NC(=O)[C@H](Cc3ccc(O)cc3)NC1=O)C(=O)N[C@@H](CCCNC(=N)N)C(=O)N[C@@H](CCCNC(=N)N)C(=O)N[C@@H](CCCNC(=N)N)C(=O)N[C@@H](Cc1ccccc1)C(=O)N2 [Protegrin PG-1, reference compound] | 0.58 | 0.70 | 0.52 | 0.46 | 0.57 | 0.27 | 0.50 | 0.79 | 0.32 | 0.53 | 0.74 | 0.09 | 0.92 | 1.08 | 0.42 | – | – | – | –
2 | GLLRRLRKKIGEIFKKYG [PGG, reference compound] | 1.63 | 2.34 | 0.86 | 1.05 | 1.11 | 1.10 | 2.67 | 7.10 | 1.51 | 1.08 | 1.64 | 0.73 | 2.20 | 2.85 | 1.31 | – | – | – | –
3 | K N L R R I I R K G I H I I K K Y G-CONH2 (KNLRRIIRKGIHIIKKYG-NH2) [Novispirin G10 amide] | – | – | – | – | – | – | – | – | – | – | – | – | – | – | – | – | – | – | MIC (E. coli; +1 mM Ca): 7.26 ± 0.02; MIC (E. coli; +1 mM Mg): 17.2 ± 3.9; MIC (E. coli; No Ca/Mg): 0.06 ± 0.00; MIC (K. pneumoniae; +1 mM Ca): 83.5 ± 6.4; MIC (K. pneumoniae; +1 mM Mg): >250; MIC (K. pneumoniae; No Ca/Mg): 0.12 ± 0.01; MIC (P. aeruginosa; +1 mM Ca): 83.5 ± 6.4; MIC (P. aeruginosa; +1 mM Mg): >250; MIC (P. aeruginosa; No Ca/Mg): 0.12 ± 0.01; MIC (S. aureus): >79
4 | KNLRRIGRKIIHIIKKYG [G7 Novispirin, K N L R R I G R K I I H I I K K Y G] | 0.38 | 0.70 | 0.61 | 0.31 | 0.29 | 0.17 | 0.92 | 2.85 | 0.42 | 0.39 | 0.29 | 0.25 | 0.89 | 1.94 | 0.54 | 0.2 ± 0.0 µg/mL | 0.2 ± 0.0 µg/mL | 1.5 ± 0.4 µg/mL | –
5 | KNLRRITRKIIHIIKKYG [T7 Novispirin, K N L R R I T R K I I H I I K K Y G] | 0.58 | 0.62 | 0.74 | 0.32 | 0.52 | 0.21 | 0.73 | 1.92 | 0.56 | 0.47 | 0.48 | 0.18 | 1.75 | 2.74 | 0.88 | 0.3 ± 0.1 µg/mL | 0.2 ± 0.1 µg/mL | 1.4 ± 0.5 µg/mL | –
6 | Polymyxin B [reference compound] | 0.04 | 0.002 | 0.04 | 0.02 | 0.02 | 0.06 | 0.02 | 0.01 | 0.05 | 0.08 | 0.05 | 0.16 | 0.04 | 0.05 | 0.02 | – | – | – | –
